Laboratory results from patent US20220332774A1, “THERAPEUTIC MITOCHONDRIAL PEPTIDES” (priority 2019, published 2022).

Tests used:
H4-IIE Cells = assay: Glucose production in cultured H4-IIE cells; type: cell-based, rat; conditions: glucose concentration in medium relative to untreated cells; 5 μM peptide, 24 h
Description: The effect of the peptides on glucose homeostasis can be assessed using an assay to monitor glucose production by cultured cells such as rat hepatocytes. Peptide arrays were initially prepared as 5 mM stock in DMSO and diluted to 0.5 mM in H2O; peptides were used at a final concentration of 5 μM (0.1% DMSO). Calculations for peptide concentrations based on approximate molecular weight of 2000 Daltons. H4-IIE rat hepatic cell line was purchased from American Type Culture Collection (Manassas, Va.). H4-IIE cells were seeded in standard medium (DMEM/high glucose+10% Fetal Bovine Serum+antibiotics) at 100,000 cells/well on 96-well plates and allowed to adhere overnight at 37° C. in a humidified atmosphere of 5% CO2/95% air. 24 h after seeding, the medium was removed, cells were rinsed with glucose free DMEM, and the medium replaced with Glucose Production Medium (glucose free DMEM+2 mM sodium pyruvate+10 mM sodium lactate+antibiotics). The cultures were placed at 37° C. in a humidified atmosphere of 5% CO2/95% air overnight. The next morning, the medium was removed and fresh Glucose Production Medium containing compounds was added; 5 uM peptide or 0.5-1 nM insulin as a potent inhibitor of glucose production. Cells were incubated for 24 h at 37° C. in a humidified atmosphere of 5% CO2/95% air. Following 24 h incubation, conditioned medium from each well was transferred to a fresh 96-well plate. Glucose concentrations in the medium were determined using a Glucose Assay kit (Abcam; Cambridge, Mass.) according to the manufacturer's instructions; absorbance measured using a Cytation 3 plate reader at 570 nm (BioTek, Winooski, Vt.). Untreated cells were used as reference for maximal glucose production. Absorbance values were expressed as percent control activity relative to untreated treated cells for 5 μM peptide. The relative standard deviation from plate to plate of untreated control was <25%. […] Glucose levels for 0.5-1 nM insulin treatment were <5% of the untreated control value. Data are presented as representative values from 2-3 independent experiments with each data point performed in triplicate in each independent experiment.

3T3-L1 Mouse Adipocytes = assay: Free fatty acid levels in cultured 3T3-L1 mouse adipocytes (isoproterenol stimulated); type: cell-based; conditions: free fatty acid in medium; 5 μM peptide, 20-22 h pre-incubation then 3 h with 0.1 nM isoproterenol; isoproterenol alone = 100%
Description: The effect of the peptides on fatty acid metabolism can be assessed using an assay to monitor free fatty acid levels produced by cultured cells such as mouse adipocytes. Peptide arrays were initially prepared as 5 mM stock in DMSO and diluted to 0.5 mM in H2O; peptides were used at a final concentration of 5 μM (0.1% DMSO). Calculations for peptide concentrations based on approximate molecular weight of 2000 Daltons. […] Mouse 3T3-L1 cells purchased from ZenBio (Research Triangle Park, NC) were seeded at 3,000 cells per well in 96-well plates in Pre-adipocyte Medium (Zen-Bio) and grown to confluence at 37° C. in a humidified atmosphere of 5% CO2/95% air. Two days after confluence, cells were placed in Adipocyte Differentiation Medium (Zen-Bio) and cultured for three additional days at 37° C. in a humidified atmosphere of 5% CO2/95% air. The culture medium was then replaced with Adipocyte Maintenance Medium (Zen-Bio) and the cells maintained for an additional 9 days at 37° C. in a humidified atmosphere of 5% CO2/95% air with partial medium replacement every other day. Following 12 days of differentiation, medium was replaced Adipocyte Maintenance Medium without insulin and the cultures placed at 37° C. in a humidified atmosphere of 5% CO2/95% air. On day 13 of differentiation, test peptides were added directly to each well (without replacing the medium) at a final concentration of 5 μM in 0.1% DMSO and incubated for 20-22 hours at 37° C. in a humidified atmosphere of 5% CO2/95% air. […] Cells were incubated for 3 hours in Assay Buffer (Zen-Bio) at 37° C. in a humidified atmosphere of 5% CO2/95% air. Following 3 h incubation, conditioned medium from each well was transferred to a fresh 96-well plate. Free fatty acid concentrations in the medium were determined using a Free Fatty Acid Assay kit (Zen-Bio) according to the manufacturer's instructions; absorbance was measured using a Cytation 3 plate reader at 540 nm (BioTek, Winooski, Vt.). Treatment with 0.1 nM isoproterenol alone was used as the free fatty acid level stimulatory control. Absorbance values were expressed as percent control activity relative to 0.1 nM isoproterenol alone treated cells, 100%. The relative standard deviation of the isoproterenol control was <10%. Insulin at 0.25 nM was used as a potent control for decreasing free fatty acid levels. […] Data presented are representative values from 2 independent experiments with each data point performed in triplicate in each independent experiment.

C2C12 Cells = assay: Glucose utilization in cultured C2C12 cells (myotubes); type: cell-based, mouse; conditions: glucose concentration in medium relative to untreated cells; 5 μM peptide, 22 h
Description: The effect of the peptides on glucose homeostasis can be assessed using an assay to monitor glucose utilization by cultured cells such as mouse myotubes. Peptide arrays were initially prepared as 5 mM stock in DMSO and diluted to 0.5 mM in H2O; peptides were used at a final concentration of 5 μM (0.1% DMSO). Calculations for peptide concentrations based on approximate molecular weight of 2000 Daltons. C2C12 mouse muscle cell line was purchased from Millipore Sigma (Saint Louis, Mo.). C2C12 cells were seeded in standard medium (DMEM/low glucose (1 g/L)+10% Fetal Bovine Serum+antibiotics) at 7,500 cells/well on 96-well plates and grown to confluence at 37° C. in a humidified atmosphere of 5% CO2/95% air. Three days after plating the medium was removed and with Differentiation Medium (DMEM/low glucose (1 g/L)+2% Horse Serum+antibiotics) added. The cultures were placed at 37° C. in a humidified atmosphere of 5% CO2/95% air for 5 days with partially replacement of medium daily. After 5 days of differentiation, the medium was removed from myotube cultures and replaced with Assay Medium (DMEM/low glucose (1 g/L)+antibiotics). Culture were placed at 37° C. in a humidified atmosphere of 5% CO2/95% air for 5 h. Following the 5 h incubation the medium was removed and fresh Assay Medium containing compounds was added; 5 μM peptide or 1 mM metformin as a potent stimulator of glucose utilization. Cells were incubated for 22 h at 37° C. in a humidified atmosphere of 5% CO2/95% air. Following 22 h incubation, conditioned medium from each well was transferred to a fresh 96-well plate. Glucose concentrations in the medium were determined using a Glucose Assay kit (Abcam; Cambridge, Mass.) according to the manufacturer's instructions; absorbance measured using a Cytation 3 plate reader at 570 nm (BioTek, Winooski, Vt.). Untreated cells were used as reference for basal glucose utilization. Absorbance values were expressed as percent control activity relative to untreated treated cells for 5 μM peptide. The relative standard deviation from plate to plate of untreated control was <10%. […] Data presented are representative values from 2-3 independent experiments with each data point performed in triplicate in each independent experiment.

Substance	Percent of Control Activity (H4-IIE Cells)	Percent of Isoproterenol Control Activity (3T3-L1 Mouse Adipocytes)	Percent of Control Activity (C2C12 Cells)
37 (MGLLEWLLCWHLLGRIINWWA) [compound 37]	103%	106%	109%
38 (MGLWLVCWVL) [compound 38]	111%	103%	108%
39 (MGNIIRAWCGEGCL) [compound 39]	114%	99%	107%
40 (MGSPPPAGSKKVVL) [compound 40]	109%	95%	109%
41 (MGSSRINPDPSPS) [compound 41]	108%	99%	109%
42 (MGSSRLAVLCPPLHGQVNFTG) [compound 42]	112%	106%	107%
43 (MGVGMEWGLLLRRGR) [compound 43]	112%	103%	101%
44 (MGVKFFTLST) [compound 44]	103%	112%	103%
45 (MHGELPWVVN) [compound 45]	107%	98%	108%
46 (MHHMKHPIIC) [compound 46]	106%	98%	104%
47 (MHKHYYNKHPHHYNLP) [compound 47]	107%	96%	103%
48 (MHKRLSPIYYSHRYLPDKRL) [compound 48]	101%	91%	104%
49 (MHLVFSSGGYARDSIA) [compound 49]	104%	87%	108%
50 (MHQSCKPEMKTFFQGQI) [compound 50]	106%	100%	99%
51 (MIEMGASFCHV) [compound 51]	111%	89%	103%
52 (MITVPAHKGMAMA) [compound 52]	107%	92%	104%
53 (MIYVSSDVGDWWKGGWGVWWVVHG) [compound 53]	115%	91%	101%

Substance	Percent of Control Activity (H4-IIE Cells)	Percent of Isoproterenol Control Activity (3T3-L1 Mouse Adipocytes)	Percent of Control Activity (C2C12 Cells)
54 (MKFEIWLGWC) [compound 54]	113%	104%	103%
55 (MKHRQVLWVLSCGS) [compound 55]	118%	98%	103%
56 (MKNHRCISTT) [compound 56]	112%	89%	104%
57 (MKPFTVHSTLQSNPFSSPWMTPL) [compound 57]	112%	102%	107%
58 (MKPMSPMRLY) [compound 58]	112%	105%	101%
59 (MKSPSTLTTQSKTPSAYFSSFSP) [compound 59]	108%	100%	108%
60 (MLEIVMGMETYHMSNA) [compound 60]	105%	94%	101%
61 (MLFMRGNAMSGAPII) [compound 61]	107%	86%	104%
62 (MLGVVGWCRL) [compound 62]	106%	94%	91%
65 (MLKPETSSDSPSA) [compound 65]	102%	99%	99%
66 (MLLGWRFQLGAWVGGLQ) [compound 66]	101%	104%	101%
67 (MLLMWWVSEPHCVVVNM) [compound 67]	107%	116%	88%
68 (MLLNSHRCSMSKDNHHSP) [compound 68]	105%	99%	99%
69 (MLMVEWWLGWLHM) [compound 69]	111%	104%	107%
70 (MLNWSNNLTNGTSYP) [compound 70]	105%	110%	118%
71 (MLPLHIYHNTMGLTHPPH) [compound 71]	107%	89%	105%
